Test results from patent US20250000826A1, “APPLICATION OF BENZANILIDE COMPOUND IN TUMOR TREATMENT” (NANJING SHIJIANG MEDICINE TECHNOLOGY CO., LTD, priority 2021, published 2025).

Tests used:
Assay type in all cases: cell-based
[1] = test system: G-401 (human renal carcinoma Wilms cell); experiment: CellTiter-Glo cell viability, G-401; details: G-401, sensitive group, 3-4 days of culture, n=3, read-out: IC50 (μM), inhibitory effect on cell line
Procedure: (§1) Cell viability was detected using the Promega CellTiter-Glo kit, cell viability was determined by directly measuring intracellular ATP content. In the experiment, the IC50 value of niclosamide on various tumor cell lines was determined. Each tumor cell was cultured separately in relevant medium (+p/s), and was incubated for 3 h, then the gradient diluted niclosamide was added. After 3-4 days of culture, the relevant IC50 (50% inhibiting concentration) was measured (n=3). The name, source and culture conditions of each tumor cell line were as follows: Cell line NCI-H82 (ATCC, No. HTB-175) was cultured in 10% fetal bovine serum-containing RPMI1640 medium (+P/S). Cell line G401 (ATCC, No. CRL-1441) was cultured in 10% fetal bovine serum-containing McCoy's 5a medium (+P/S).

[2] = test system: SW48 (human colon adenocarcinoma cell); experiment: CellTiter-Glo cell viability, SW48; details: SW48, sensitive group, 3-4 days of culture, n=3, read-out: IC50 (μM), inhibitory effect on cell line
Procedure: as §1, with “SW48” for “G401”, “CCL-231)” for “CRL-1441)”, “Leibovitz's L-15” for “McCoy's 5a”

[3] = test system: SF-126 (human glioblastoma multiforme cell); experiment: CellTiter-Glo cell viability, SF-126; details: SF-126, insensitive group, 3-4 days of culture, n=3, read-out: IC50 (μM), inhibitory effect on cell line
Procedure: as §1, with “SF126 (JCRB.” for “G401 (ATCC,”, “1F050286)” for “CRL-1441)”, “EMEM” for “McCoy's 5a”

NCI-H82 (ov-NNMT) cell = experiment: CellTiter-Glo cell viability, NNMT protein-overexpressing NCI-H82 cell; details: Homo sapiens; NCI-H82 with NNMT gene inserted by viral vector, n=3
Procedure: (§2) The NNMT protein-overexpressing NCI-H82 cell (NCI-H82 (ov-NNMT)) was obtained by inserting the NNMT gene into NCI-H82 cell using a viral vector. The control NCI-H82 cell (NCI-H82 (Con)) was obtained by transfecting NCI-H82 cell with empty virus vector without carrying NNMT gene. The IC50 value of niclosamide on control NCI-H82 cell (NCI-H82 (Con)) and NNMT protein-overexpressing NCI-H82 cell (NCI-H82 (ov-NNMT)) was determined using Promega CellTiter-Glo kit which detected cell viability by directly measuring intracellular ATP content (n=3), the experiment result was shown in Table 4 below: […]

[4] = test system: MDA-MB-453 (breast cancer cell); experiment: CellTiter-Glo cell viability, MDA-MB-453; details: Homo sapiens; MDA-MB-453, sensitive group, 3-4 days of culture, n=3; read-out: IC50 (μM), inhibitory effect on cell line
Procedure: as §1, with “MDA-MB-453” for “G401”, “HTB-131)” for “CRL-1441)”, “Leibovitz's L-15” for “McCoy's 5a”

[5] = test system: GB-1 (human glioblastoma cell); experiment: CellTiter-Glo cell viability, GB-1; details: GB-1, insensitive group, 3-4 days of culture, n=3, read-out: IC50 (μM), inhibitory effect on cell line
Procedure: as §1, with “GB-1 (JCRB,” for “G401 (ATCC,”, “IF050489)” for “CRL-1441)”, “[…] DMEM” for “McCoy's 5a”

NCI-H82 (Con) cell = experiment: CellTiter-Glo cell viability, control NCI-H82 cell; details: Homo sapiens; NCI-H82 transfected with empty virus vector, n=3
Procedure: as §2

[6] = test system: NCI-H82 (human small cell lung cancer cell); experiment: CellTiter-Glo cell viability, NCI-H82; details: NCI-H82, sensitive group, 3-4 days of culture, n=3, read-out: IC50 (μM), inhibitory effect on cell line
Procedure: as §1, with “(+P/S).” for “(+P/S). Cell line G401 (ATCC, No. CRL-1441) was cultured in 10% fetal bovine serum-containing McCoy's 5a medium (+P/S).”

[7] = test system: WSU-DLCL2 (human diffuse large B-cell lymphoma); experiment: CellTiter-Glo cell viability, WSU-DLCL2; details: WSUDLCL2, WSU-DLCL2, sensitive group, 3-4 days of culture, n=3, read-out: IC50 (μM), inhibitory effect on cell line
Procedure: as §1, with “WSU-DLCL2 (DSMZ,” for “G401 (ATCC,”, “ACC-575)” for “CRL-1441)”, “RPMI1640” for “McCoy's 5a”

[8] = test system: 786-0 (clear cell renal cell adenocarcinoma cell); experiment: CellTiter-Glo cell viability, 786-0; details: Homo sapiens; 786-0, insensitive group, 3-4 days of culture, n=3; read-out: IC50 (μM), inhibitory effect on cell line
Procedure: as §1, with “786-0” for “G401”, “CRL-1932)” for “CRL-1441)”, “RPMI1640” for “McCoy's 5a”

[9] = test system: CFPAC-1 (human pancreatic cancer cell); experiment: CellTiter-Glo cell viability, CFPAC-1; details: CFPAC-1, insensitive group, 3-4 days of culture, n=3, read-out: IC50 (μM), inhibitory effect on cell line
Procedure: as §1, with “CFPAC-1” for “G401”, “CRL-1918)” for “CRL-1441)”, “IMDM” for “McCoy's 5a”

IC50 [1]: 0.64 µM
IC50 [2]: 0.72 µM
IC50 [3]: 16.2 µM
IC50 (NCI-H82 (ov-NNMT) cell): 420 nM
IC50 [4]: 0.47 µM
IC50 [5]: 6.68 µM
IC50 (NCI-H82 (Con) cell): 120 nM
IC50 [6]: 0.13 µM
IC50 [7]: 0.21 µM
IC50 [8]: > 50 µM
IC50 [9]: > 50 µM
SMILES: O=C(Nc1ccc([N+](=O)[O-])cc1Cl)c1cc(Cl)ccc1O [Niclosamide, niclosamide]
